According to patent publication US8101583B2, “1,4-benzothiepin-1,1-dioxide derivatives which are substituted with fluorine, method for producing the same, drugs containing said compounds and use thereof” (Sanofi-Aventis Deutschland GmbH, priority 2006, dated 2012):

molecular target: T1, human IBAT (Homo sapiens, UniProt Q12908); assay: in vitro IBAT inhibition assay: IBAT-dependent uptake of [3H]-taurocholic acid into CHO-hIBAT cells; type: cell-based; conditions: taurocholic acid 10 μM, 60 min at room temperature, read-out: IC-50 (human IBAT)
T1 construct: Bases 599 to 1645 correspond to the complete coding region of human IBAT; expressed in transfected cells
T1 sequence (Q12908 1-348): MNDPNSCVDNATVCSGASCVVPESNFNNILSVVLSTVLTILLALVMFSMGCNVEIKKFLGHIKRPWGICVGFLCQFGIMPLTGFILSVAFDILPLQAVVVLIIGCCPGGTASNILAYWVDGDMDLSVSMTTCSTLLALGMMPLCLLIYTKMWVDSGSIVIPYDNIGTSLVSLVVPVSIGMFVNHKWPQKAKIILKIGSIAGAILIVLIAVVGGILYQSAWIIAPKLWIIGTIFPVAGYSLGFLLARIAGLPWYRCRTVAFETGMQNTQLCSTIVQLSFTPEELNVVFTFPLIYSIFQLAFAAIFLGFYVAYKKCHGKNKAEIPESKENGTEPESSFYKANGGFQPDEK
Excerpt: Preparation and procedure for the in vitro IBAT inhibition assay:
1. Cloning of an Expression Vector for Human IBAT
The cDNA (complementary deoxyribonucleic acid) of human IBAT was cloned by standard methods of molecular biology as described for example in Molecular Cloning: A Laboratory Manual by Joseph Sambrook and David Russell, and introduced into the pcDNA1 vector from Invitrogen. […] Bases 599 to 1645 correspond to the complete coding region of human IBAT.
2. Preparation of a Recombinant Cell Line with Constitutive Expression of Human IBAT
The expression vector for human IBAT was introduced by stable transfection into CHO (chinese hamster ovary) cells. To select single cell clones, 400 μg/ml Geneticin was added to the cell culture medium (Ham's F12 medium supplemented with 10% fetal calf serum, 100 units/ml penicillin, 100 units/ml streptomycin). The functionality of the single cell clones resulting from the selection was assayed via their uptake activity for radiolabeled taurocholic acid ([^3H]-TCA). The cell clone with the highest uptake activity for [^3H]-TCA, referred to hereinafter as CHO-hIBAT, was selected for the further assays and further cultured in the presence of 400 μg/ml Geneticin.
3. Measurement of the Inhibitory Effect of the Compound of the Invention on the IBAT-Dependent Uptake of Taurocholic Acid into Cells
CHO-hIBAT cells were seeded in a concentration of 40 000 cells per well in poly-D-lysine-coated 96-well plates in cell culture medium and cultured for 24 h. The cells were then washed once with sodium-free transport assay buffer (140 mM choline chloride, 2 mM potassium chloride, 1 mM magnesium chloride, 1 mM calcium chloride, 10 mM HEPES/Tris, pH 7.5) and subsequently incubated either with sodium-free transport assay buffer as negative control or with sodium-containing transport assay buffer (140 mM sodium chloride, 2 mM potassium chloride, 1 mM magnesium chloride, 1 mM calcium chloride, 10 mM HEPES/Tris, pH 7.5) as positive control at room temperature for 30 min. At the same time, the assay wells were also incubated in the presence of the compound to be investigated in varying concentration in sodium-containing transport assay buffer at room temperature for 30 min. The test substances were appropriately diluted in transport assay buffer (40 μl/well) starting from a 10 mM stock solution in dimethyl sulfoxide. The assay was then started by adding 10 μl/well of a mixture of radiolabeled taurocholic acid ([^3H]-TCA) and unlabeled taurocholic acid. The final concentration of taurocholic acid in the assay was 10 μM. After an incubation time of 60 min at room temperature, the reaction was stopped by adding 100 μl/well sodium-free transport assay buffer (4° C.), and each well was washed three times with sodium-free transport assay buffer. Finally, 100 μl of scintillation fluid were added to each well, and the radioactivity taken up into the cells was determined in a MicroBeta Scintillation Microplate Reader from Wallac.
The half-maximum inhibitory effect of the test compound (IC50 value, inhibitory concentration 50) was determined in the following way: • 1. Determination of the value for 0% inhibition. This is the measurement in the absence of substance, measured in sodium-containing transport assay buffer. • 2. Determination of the value for 100% inhibition. This is the measurement in the absence of substance, measured in sodium-free transport assay buffer. • 3. […]

SMILES	IC50
CCCC[C@]1(CC)CS(=O)(=O)c2ccc(N(C)C)cc2[C@@H](c2cccc(NC(=O)N[C@@H]3O[C@H](CS(=O)(=O)O)[C@@H](F)[C@H](O)[C@H]3O)c2)[C@H]1O [Example 5]	5.6 nM
CCCC[C@]1(CC)CS(=O)(=O)c2ccc(N(C)C)cc2[C@@H](c2cccc(NC(=O)N[C@@H]3O[C@H](CO)[C@@H](F)[C@H](O)[C@H]3O)c2)[C@H]1O [Example 1]	6.5 nM

These reach a lower IC50. Values come first.

IC50	SMILES
5.3 nM	CCCC[C@]1(CC)CS(=O)(=O)c2ccc(N(C)C)cc2[C@@H](c2cccc(NC(=O)N[C@@H]3O[C@H](CO)C(F)(F)[C@H](O)[C@H]3O)c2)[C@H]1O [Example 3]
3.9 nM	CCCC[C@]1(CC)CS(=O)(=O)c2ccc(N(C)C)cc2[C@@H](c2cccc(NC(=O)N[C@@H]3O[C@H](COS(=O)(=O)O)[C@@H](F)[C@H](O)[C@H]3O)c2)[C@H]1O [Example 2]
3.6 nM	CCCC[C@]1(CC)CS(=O)(=O)c2ccc(N(C)C)cc2[C@@H](c2cccc(NC(=O)N[C@@H]3O[C@H](COS(=O)(=O)O)C(F)(F)[C@H](O)[C@H]3O)c2)[C@H]1O [Example 4]
